Active and inactive are the calls of the source. No rule for the calls is given here.
Test system: ADSC/ECFC co-culture, VEGF-stimulated, CD31 tube area
Assay: ADSC/ECFC co-culture angiogenesis inhibition – imaging, VEGF stimulation, CD31 staining, tube area, IC50, dose response (AID 1117337)

SMILES	IC50
CO[C@@H]1[C@@H](OC)[C@H](C)[C@@](O)(CC(=O)O)O[C@H]1[C@H](C)[C@H]1O[C@@]2(CC[C@@](C)([C@H]3CC[C@@](C)([C@@H]4O[C@@H]([C@H]5O[C@](C)(O)[C@H](C)C[C@@H]5C)C[C@@H]4OC4C[C@H](OC)[C@@H](OC)[C@H](C)O4)O3)O2)C[C@H](O)[C@H]1C (stereo partly specified)	0.252 µM
CO[C@@]12[C@H](COC(N)=O)C3=C(C(=O)C(C)=C(N)C3=O)N1C[C@@H]1N[C@@H]12	0.102 µM
CN1CCN(c2cc3c(nn2)Oc2ccccc2N3C)CC1	> 10 µM (inactive)
COC(=O)Nc1nc2ccc(Sc3ccccc3)cc2[nH]1	0.207 µM
CCCCCCCCCCCCCCCCCCCCCC(=O)Nc1ccn([C@@H]2O[C@H](CO)[C@@H](O)[C@H]2O)c(=O)n1	> 10 µM (inactive)
Cc1[nH]cnc1C[C@H]1CCc2c(C)c3ccccc3n2C1=O	> 10 µM (inactive)
Oc1cc(Cl)ccc1Oc1ccc(Cl)cc1Cl	> 10 µM (inactive)
O=c1c(-c2ccc(O)cc2)coc2cc(O)cc(O)c12	> 10 µM (inactive)
CCCCCCCC[N+](C)(C)CCCCCCCC	1.39 µM
Cc1c(N)cccc1C(F)(F)F	> 10 µM (inactive)
CC[C@@]1(O)C(=O)OCc2c1cc1n(c2=O)Cc2c-1nc1ccccc1c2/C=N/OC(C)(C)C	0.002 µM
COC(=O)C(Cl)C(=O)OC	> 10 µM (inactive)
C[C@H]1O[C@@H](O[C@H]2CC[C@@]3(C)[C@H](CC[C@@H]4[C@@H]3C[C@@H](O)[C@]3(C)[C@@H](C5=CC(=O)OC5)CC[C@]43O)C2)C[C@H](O)[C@@H]1O[C@H]1C[C@H](O)[C@H](O[C@H]2C[C@H](O)[C@H](O[C@@H]3O[C@H](CO)[C@@H](O)[C@H](O)[C@H]3O)[C@@H](C)O2)[C@@H](C)O1	0.0614 µM
Cc1c(C)c2c(c(C)c1OC(=O)CCC(=O)O)CC[C@@](C)(CCC[C@H](C)CCC[C@H](C)CCCC(C)C)O2	> 10 µM (inactive)
COc1cccc2c1C(=O)c1c(O)c3c(c(O)c1C2=O)C[C@@](O)(C(=O)CO)C[C@@H]3O[C@H]1C[C@H](N)[C@H](O)[C@H](C)O1	0.0429 µM
CN(Cc1cnc2nc(N)nc(N)c2n1)c1ccc(C(=O)N[C@@H](CCC(=O)O)C(=O)O)cc1	> 10 µM (inactive)
CCCCCCCCCCCCNCCNCCNCC(=O)O	6.04 µM (inactive)
Cc1ccc([N+](=O)[O-])[c]2c1[O][Hg]2	0.668 µM
CCOP(=S)(OCC)SCSc1ccc(Cl)cc1	> 10 µM (inactive)
CN[C@@H]1C[C@@H](c2ccc(Cl)c(Cl)c2)c2ccccc21	> 10 µM (inactive)
CC1(C)[C@H](C=C(Cl)Cl)[C@@H]1C(=O)OCc1c(F)c(F)cc(F)c1F	> 10 µM (inactive)
COCC(C)N(C(=O)CCl)c1c(C)csc1C (stereo unspecified)	> 10 µM (inactive)

SMILES	IC50
Cc1ccc(O)cc1	> 10 µM (inactive)
CCCCC(CC)COC(=O)C(C#N)=C(c1ccccc1)c1ccccc1 (stereo unspecified)	> 10 µM (inactive)
CC(=O)c1ccc(OCC(=O)N2CCCCC2)cc1	> 10 µM (inactive)
CCCCN(CCCC)CCC(O)c1cc2c(Cl)cc(Cl)cc2c2cc(C(F)(F)F)ccc12 (stereo unspecified)	> 10 µM (inactive)
CC=CC1C(C(=O)OCc2c(F)c(F)c(COC)c(F)c2F)C1(C)C (stereo unspecified)	> 10 µM (inactive)
O=c1c(-c2ccccc2)c1-c1ccccc1	3.84 µM
O=C(O)C1CCC1	> 10 µM (inactive)
CCC(C)n1ncn(-c2ccc(N3CCN(c4ccc(OC[C@H]5CO[C@](Cn6cncn6)(c6ccc(Cl)cc6Cl)O5)cc4)CC3)cc2)c1=O (stereo partly specified)	1.55 µM
O=C(CBr)Nc1ccc(Cl)cc1C(=O)c1ccccc1F	> 10 µM (inactive)
O=C(N/N=C/c1ccccc1O)c1ccncc1	> 10 µM (inactive)
CC[C@]1(O)C[C@H]2CN(CCc3c([nH]c4ccccc34)[C@@](C(=O)OC)(c3cc4c(cc3OC)N(C=O)[C@H]3[C@@](O)(C(=O)OC)[C@H](OC(C)=O)[C@]5(CC)C=CCN6CC[C@]43[C@@H]65)C2)C1	0.0065 µM
CN(C)C(=O)Oc1cccc([N+](C)(C)C)c1	> 10 µM (inactive)
CCc1oc2ccccc2c1C(=O)c1cc(Br)c(O)c(Br)c1	> 10 µM (inactive)
Nc1nc(F)nc2c1ncn2[C@@H]1O[C@H](CO)[C@@H](O)[C@@H]1O	8.45 µM (inactive)
Clc1ccc(C(Cn2ccnc2)OCc2ccsc2Cl)c(Cl)c1 (stereo unspecified)	5 µM
O=C1NCCN1CCN1CCC(c2cn(-c3ccc(F)cc3)c3ccc(Cl)cc23)CC1	> 10 µM (inactive)
CCCCc1ccc2nc(NC(=O)OC)[nH]c2c1	0.053 µM
Oc1c(Cl)cc(Cl)cc1Sc1cc(Cl)cc(Cl)c1O	1.79 µM
O[C@@H](c1cc(C(F)(F)F)nc2c(C(F)(F)F)cccc12)[C@H]1CCCCN1	> 10 µM (inactive)
O=C(NC(=O)c1c(F)cccc1F)Nc1ccc(Cl)c(Oc2ncc(C(F)(F)F)cc2Cl)c1	> 10 µM (inactive)
CCCCc1oc2ccc(NS(C)(=O)=O)cc2c1C(=O)c1ccc(OCCCN(CCCC)CCCC)cc1	2.75 µM
C[n+]1cc2c3c(ccc2c2ccc4cc5c(cc4c21)OCO5)OCO3	0.537 µM

SMILES	IC50
O=C1NCN(c2ccccc2)C12CCN(CCCC(c1ccc(F)cc1)c1ccc(F)cc1)CC2	> 10 µM (inactive)
OCCN1CCN(CCCN2c3ccccc3Sc3ccc(C(F)(F)F)cc32)CC1	> 10 µM (inactive)
O=C1OC(OC(=O)c2cccnc2Nc2cccc(C(F)(F)F)c2)c2ccccc21 (stereo unspecified)	> 10 µM (inactive)
CCOC(=O)[C@H](CCc1ccccc1)N[C@@H](C)C(=O)N1Cc2cc(OC)c(OC)cc2C[C@H]1C(=O)O	> 10 µM (inactive)
CCCSc1ccc2nc(NC(=O)OC)[nH]c2c1	0.355 µM
Cc1cccc(C)c1NC(=O)CC12CCCN1CCC2	> 10 µM (inactive)
Cc1ccc2nc(N)[nH]c(=O)c2c1Sc1ccncc1	7.37 µM (inactive)
CCCCCCCCCCCC(=O)[O][Sn]([CH2]CCC)([CH2]CCC)[O]C(=O)CCCCCCCCCCC	2.01 µM
CCCCCCCCCCCCCCCCNc1ccc(C(=O)O)cc1	0.367 µM
CC1=C(/C=C/C(C)=C/C=C/C(C)=C/C(=O)Nc2ccc(O)cc2)C(C)(C)CCC1	1.34 µM
COC(=O)C1=C(C)NC(C)=C(C(=O)OCCN2CCN(C(c3ccccc3)c3ccccc3)CC2)C1c1cccc([N+](=O)[O-])c1 (stereo unspecified)	> 10 µM (inactive)
Cc1cc(OCCOCC[N+](C)(C)Cc2ccccc2)ccc1C(C)(C)CC(C)(C)C	> 10 µM (inactive)
CN1CC[C@H](c2c(O)cc(O)c3c(=O)cc(-c4ccccc4Cl)oc23)[C@H](O)C1	0.114 µM
O=C(Nc1ccc(Br)cc1)c1cc(Br)c(Br)s1	> 10 µM (inactive)
Cc1ccc(Nc2c(F)cccc2Cl)c(CC(=O)O)c1	> 10 µM (inactive)
CC12CCC(CC1)C(C)(C)O2	> 10 µM (inactive)
O=c1[nH]cc(F)c(=O)[nH]1	> 10 µM (inactive)
CC[C@H](C)C(=O)O[C@H]1C[C@@H](C)C=C2C=C[C@H](C)[C@H](CC[C@@H]3C[C@@H](O)CC(=O)O3)[C@H]21	3.27 µM
Cc1cc(C2CCCCC2)n(O)c(=O)c1	> 10 µM (inactive)
CC(=O)Nc1ccn(C2COC(COC(=O)c3ccccc3)O2)c(=O)n1 (stereo unspecified)	2.33 µM
Cc1c(O)cc2c(c1C)O[C@](C)(CCC[C@H](C)CCC[C@H](C)CCCC(C)C)CC2	> 10 µM (inactive)
Clc1ccc(CSC(Cn2ccnc2)c2ccc(Cl)cc2Cl)cc1 (stereo unspecified)	2.13 µM

Reference: PubChem BioAssay AID1117337 (Cheminformatics & Chemogenomics Research Group (CCRG), …, 2015)
